Non-standard residues stand in square brackets, D forms with d. Residues, ends and D or L forms follow the SMILES beside them. *: point of attachment. FITC = O=C1OC2(c3ccc(O)cc3Oc3cc(O)ccc32)c2ccc(NC(=S)*)cc21; NOTA = O=C(O)CN1CCN(CC(=O)O)CCN(CC(=O)*)CC1; Ahx = NCCCCCC(=O)O
Legend:
[1] = Biodistribution in tumor-bearing mice; settings: female, BALB/c nu/nu, mouse, iv, 10 kBq/100 uL, total radioactivity
Experimental: (§4) BALB/c nu/nu mice (female; 4 weeks old) were supplied by Japan SLC Inc. (Shizuoka, Japan). The mice were maintained in a room at a constant ambient temperature and a 12/12 h light/dark cycle, and they were given free access to food and water. Mice were subcutaneously injected on their right shoulders with approximately 1.0 × 10^7 KB cells. The tumors were allowed to reach 300–500 mm^3 (1‒2 weeks after inoculation) before biodistribution studies were performed.
(§5) The ^67Ga-NOTA-CAPs (10 kBq/100 μL) were intravenously injected into the mice via the tail vein. The mice were sacrificed at the designated time intervals, and the organs were dissected. The tissues were then weighed, and radioactivity was measured by automated gamma counting (n = 5).

KB tumor-bearing mice [2] = assay: Biodistribution in tumor-bearing mice; settings: 30 min after administration, KB xenograft, i.v.; mean (SD) of 4–6 mice
Experimental: as §4, §5

[3] = In vitro stability in mouse plasma; settings: freshly prepared mouse plasma, 37 °C, 1 h, 10 μL tracer + 90 μL plasma, CH3CN precipitation, HPLC; mean (SEM) of three experiments
Experimental: The in vitro stability of ^67Ga-NOTA-CAPs in phosphate-buffered saline (PBS) and mouse plasma was analyzed according to a previously reported procedure [29, 30, 31]. In brief, each radiotracer (10 μL; 2.0–3.0 MBq) was added to PBS (90 μL) and incubated at 37 °C for 24 h or to freshly prepared mouse plasma (90 μL) and incubated at 37 °C for 1 h. […] The mouse plasma solution was added to ice-cold CH3CN (300 μL) and centrifuged at 9400 rcf for 4 min. The supernatant was filtered through a 0.22 μm membrane before HPLC analysis.

3T3-L1 cells [4] = assay: Cellular uptake of FITC-CAPs; format: cell-based, mouse; settings: 1 μM; for Difference in FITC-CAP uptake between KB and 3T3-L1 cells (specificity for cancer cells): 2 h, ANOVA with Tukey's test
Experimental: (§1) Epidermoid carcinoma KB cells were provided by DS Pharma Biomedical Co., Ltd. (Suita, Japan). Mouse fibroblast-like 3T3-L1 cells were obtained from the JCRB Cell Bank (Tokyo, Japan). KB cells were cultured in Eagle’s minimal essential medium supplemented with 10% fetal bovine serum. The 3T3-L1 cells were grown in Dulbecco’s modified Eagle’s medium supplemented with 10% bovine calf serum. All media were supplemented with 100 IU/mL penicillin and 100 μg/mL streptomycin. The cells were maintained in a humidified atmosphere containing 5% CO2 at 37 °C.
(§2) Each cell line was grown to confluence in a 12-well plate and washed with PBS. FITC-CAPs (1 μM) or ^67Ga-NOTA-CAPs (1.0 kBq) (Figure S2C) in a growing medium (0.6 mL) were added to each cell and incubated at 37 °C for each time point. After incubation, the cells were washed twice with 20 units of heparin/PBS (0.5 mL) and lysed using cell lysis buffer M from Fujifilm Wako (Osaka, Japan) at 37 °C for 20 min. The radioactivity and fluorescence of the lysates was measured using a gamma counter and fluorescence microplate reader, respectively, and the protein concentration was determined using a Bradford protein assay kit (Bio-Rad, Hercules, CA, USA). Data are expressed as percentage uptake per milligram of protein (% uptake/mg protein).

KB cells [5] = assay: Cellular uptake of FITC-CAPs; format: cell-based; settings: 1 μM, 37 °C, 2 h post-incubation, heparin/PBS wash, lysate fluorescence; mean ± SEM, n = 7–13
Experimental: as §1, §2

KB cells [6] = assay: Confocal fluorescence microscopic imaging of FITC-CAPs; format: cell-based; settings: 10 µM, 1 h, confocal laser scanning microscope
Experimental: (§3) KB and 3T3-L1 cells were cultured on 8-well chambered cover glasses (Iwaki, Tokyo, Japan) and incubated with FITC-CAPs (10 μM) for 1 h. The medium was removed and cells were washed twice with ice-cold PBS containing heparin (20 units/mL) and twice with ice-cold PBS. Subsequently, the cells were incubated with Hoechst 33342 (2.5 µg/mL) for 30 min and then washed twice with ice-cold PBS. Fluorescent images were captured using a confocal laser scanning microscope (LSM710, Carl Zeiss Inc., Jena, Germany) with excitation wavelengths of 405 nm (UV laser) for Hoechst 33342 and 488 nm (Ar laser) for FITC-CAPs.

3T3-L1 cells [7] = assay: as above; format: cell-based, mouse; settings: 10 µM, 1 h, confocal laser scanning microscope
Experimental: as §3

KB tumor-bearing mice [8] = settings: mouse, in vivo
Experimental: as §4, §5

in vivo = settings: female, BALB/c nu/nu, mouse, iv, 10 kBq/100 uL, total radioactivity
Experimental: as §4, §5

## CC(C)[C@H](NC(=O)[C@H](CCCNC(=N)N)NC(=O)[C@@H](NC(=O)[C@H](CCCNC(=N)N)NC(=O)[C@@H](NC(=O)[C@H](CCCNC(=N)N)NC(=O)[C@@H](NC(=O)[C@@H]1CCCN1C(=O)[C@H]1CCCN1C(=O)[C@@H](NC(=O)[C@H](CCCNC(=N)N)NC(=O)[C@@H](NC(=O)[C@H](CCCNC(=N)N)NC(=O)[C@@H](NC(=O)[C@H](CCCNC(=N)N)NC(=O)[C@@H](NC(=O)[C@H](CCCNC(=N)N)NC(=O)CN1CCN(CC(=O)O)CCN(CC(=O)O)CC1)C(C)C)C(C)C)C(C)C)C(C)C)[C@@H](C)O)C(C)C)C(C)C)C(=O)N[C@@H](CCCNC(=N)N)C(N)=O [^67Ga-NOTA-RV6, metal not drawn] ({NOTA}-RVRVRVRV[dP]PTRVRVRVR-NH2)
[1]; kidney
  tissue uptake at 2 h: 26.9 %ID/g
[1]; liver
  tissue uptake at 2 h: 53.8 %ID/g
[1]; tumor/blood
  tissue to tissue ratio at 2 h: 8
[1]; tumor/muscle
  tissue to tissue ratio at 2 h: 3.35 ± 0.64
KB tumor-bearing mice [2]
  Tumor uptake: 4.76% ± 1.50 % ID/g
[3]
  In vitro stability in mouse plasma, percentage of remaining intact radiotracer: 27.4 (2.94) %

## CC(C)[C@H](NC(=O)[C@H](CCCNC(=N)N)NC(=O)[C@@H](NC(=O)[C@H](CCCNC(=N)N)NC(=O)[C@@H](NC(=O)[C@H](CCCNC(=N)N)NC(=O)[C@@H](NC(=O)[C@@H]1CCCN1C(=O)[C@H]1CCCN1C(=O)[C@@H](NC(=O)[C@H](CCCNC(=N)N)NC(=O)[C@@H](NC(=O)[C@H](CCCNC(=N)N)NC(=O)[C@@H](NC(=O)[C@H](CCCNC(=N)N)NC(=O)[C@@H](NC(=O)[C@H](CCCNC(=N)N)NC(=O)CCCCCNC(=S)Nc1ccc2c(c1)C(=O)OC21c2ccc(O)cc2Oc2cc(O)ccc21)C(C)C)C(C)C)C(C)C)C(C)C)[C@@H](C)O)C(C)C)C(C)C)C(=O)N[C@@H](CCCNC(=N)N)C(N)=O [FITC-RV6] ({FITC-Ahx}-RVRVRVRV[dP]PTRVRVRVR-NH2)
3T3-L1 cells [4]; 37 °C, 2 h post-incubation, heparin/PBS wash, lysate fluorescence, mean ± SEM, n = 7–13
  Cellular uptake of FITC-CAPs into 3T3-L1 cells: 26.6% ± 2.18 % uptake/mg protein
3T3-L1 cells [4]
  Difference in FITC-CAP uptake between KB and 3T3-L1 cells (specificity for cancer cells): low specificity for cancer cells
KB cells [5]
  Cellular uptake of FITC-CAPs into KB cells: 36.0% ± 2.63 % uptake/mg protein
KB cells [6]
  Cellular localization in KB cells: also accumulated in the cytoplasm and nucleus
3T3-L1 cells [7]
  Fluorescence signal in 3T3-L1 cells: strong fluorescence signals

## CC(C)[C@H](NC(=O)[C@H](CCCCN)NC(=O)[C@@H](NC(=O)[C@H](CCCCN)NC(=O)[C@@H](NC(=O)[C@H](CCCCN)NC(=O)[C@@H](NC(=O)[C@@H]1CCCN1C(=O)[C@H]1CCCN1C(=O)[C@@H](NC(=O)[C@H](CCCCN)NC(=O)[C@@H](NC(=O)[C@H](CCCCN)NC(=O)[C@@H](NC(=O)[C@H](CCCCN)NC(=O)[C@@H](NC(=O)[C@H](CCCCN)NC(=O)CN1CCN(CC(=O)O)CCN(CC(=O)O)CC1)C(C)C)C(C)C)C(C)C)C(C)C)[C@@H](C)O)C(C)C)C(C)C)C(=O)N[C@@H](CCCCN)C(N)=O [^67Ga-NOTA-KV6, metal not drawn] ({NOTA}-KVKVKVKV[dP]PTKVKVKVK-NH2)
[1]; kidney
  tissue uptake at 2 h: 118 %ID/g
[1]; tumor/blood
  tissue to tissue ratio at 2 h: 7.7
[1]; tumor/muscle
  tissue to tissue ratio at 2 h: 5.05 ± 1.51
KB tumor-bearing mice [2]
  Tumor uptake: 4.46% ± 0.58 % ID/g
KB tumor-bearing mice [8]
  Tumor-to-blood ratio compared among tracers: significantly higher
  Tumor-to-muscle ratio compared among tracers: significantly greater
In vivo
  tissue uptake at 2 h: 32.6 %ID/g

## CC(C)[C@H](NC(=O)[C@H](Cc1c[nH]cn1)NC(=O)[C@@H](NC(=O)[C@H](Cc1c[nH]cn1)NC(=O)[C@@H](NC(=O)[C@H](Cc1c[nH]cn1)NC(=O)[C@@H](NC(=O)[C@@H]1CCCN1C(=O)[C@H]1CCCN1C(=O)[C@@H](NC(=O)[C@H](Cc1c[nH]cn1)NC(=O)[C@@H](NC(=O)[C@H](Cc1c[nH]cn1)NC(=O)[C@@H](NC(=O)[C@H](Cc1c[nH]cn1)NC(=O)[C@@H](NC(=O)[C@H](Cc1c[nH]cn1)NC(=O)CCCCCNC(=S)Nc1ccc2c(c1)C(=O)OC21c2ccc(O)cc2Oc2cc(O)ccc21)C(C)C)C(C)C)C(C)C)C(C)C)[C@@H](C)O)C(C)C)C(C)C)C(=O)N[C@@H](Cc1c[nH]cn1)C(N)=O [FITC-HV6] ({FITC-Ahx}-HVHVHVHV[dP]PTHVHVHVH-NH2)
3T3-L1 cells [4]
  Difference in FITC-CAP uptake between KB and 3T3-L1 cells (specificity for cancer cells): high selectivity for cancer cells
KB cells [5]
  Cellular uptake of FITC-CAPs into KB cells: 19.0% ± 0.94 % uptake/mg protein
KB cells [6]
  Cellular localization in KB cells: also accumulated in the cytoplasm and nucleus
3T3-L1 cells [7]
  Fluorescence signal in 3T3-L1 cells: low fluorescence signals

## CC(C)[C@H](NC(=O)[C@H](Cc1c[nH]cn1)NC(=O)[C@@H](NC(=O)[C@H](Cc1c[nH]cn1)NC(=O)[C@@H](NC(=O)[C@H](Cc1c[nH]cn1)NC(=O)[C@@H](NC(=O)[C@@H]1CCCN1C(=O)[C@H]1CCCN1C(=O)[C@@H](NC(=O)[C@H](Cc1c[nH]cn1)NC(=O)[C@@H](NC(=O)[C@H](Cc1c[nH]cn1)NC(=O)[C@@H](NC(=O)[C@H](Cc1c[nH]cn1)NC(=O)[C@@H](NC(=O)[C@H](Cc1c[nH]cn1)NC(=O)CN1CCN(CC(=O)O)CCN(CC(=O)O)CC1)C(C)C)C(C)C)C(C)C)C(C)C)[C@@H](C)O)C(C)C)C(C)C)C(=O)N[C@@H](Cc1c[nH]cn1)C(N)=O [^67Ga-NOTA-HV6, metal not drawn] ({NOTA}-HVHVHVHV[dP]PTHVHVHVH-NH2)
[1]; kidney
  tissue uptake at 2 h: 23 %ID/g
[1]; tumor/blood
  tissue to tissue ratio at 2 h: 3.8
[1]; tumor/muscle
  tissue to tissue ratio at 2 h: 4.01 ± 2.05
KB tumor-bearing mice [2]
  Tumor uptake: 3.18% ± 0.36 % ID/g
[3]
  In vitro stability in mouse plasma, percentage of remaining intact radiotracer: 23.3 (0.75) %

— article PMC8155856, “Synthesis and Characterization of Radiogallium-Labeled Cationic Amphiphilic Peptides as Tumor Imaging Agents” (Cancers, 2021)
